# Experimental data from US10633419B2, “Immunomodulators” (BRISTOL-MYERS SQUIBB COMPANY, priority 2014, dated 2020).
# pIC50: −log10 of the molar value. Starred links: 1 amine or outer side, 2 acyl side, 3 side chain; linkers in the order of their positions; H or OH if unused. Positions of bridges follow the written chain, without caps; N, C: chain ends. Non-standard residues stand in square brackets, D forms with d. Residues, ends and D or L forms follow the SMILES beside them. Groups on a side chain read outwards from the residue. *: point of attachment. X28 = O=C(O)CCCCCCCCCCNC(=O)CCC(=O)NCCCOCCOCCOCCCNC(=O)CCC(=O)NCCCOCCOCCOCCCN*; X13 = O=C(O)CCCCCCCCCCCCCCC(=O)N[C@@H](CCC(=O)NCCCOCCOCCOCCCN*)C(=O)O; Trp(1-CH2COOH) = N[C@@H](Cc1cn(CC(=O)O)c2ccccc12)C(=O)O; X3 = NC(=O)[C@H](CC(=O)O)NC(=O)CCC(=O)NCCCOCCOCCOCCCN*; X9 = O=C(O)CCCCCCCCCCCCCCCCC(=O)N[C@@H](CCN*)C(=O)O; X10 = O=C(O)CCCCCCCCCCCCCCC(=O)N[C@@H](CN*)C(=O)O; C18 diacid = O=C(O)CCCCCCCCCCCCCCCCC(=O)*; γGlu = O=C(O)[C@H](CCC(=O)[*:2])N[*:1]; d(cisHyp) = O=C(O)[C@H]1C[C@@H](O)CN1; βAsp = O=C(O)[C@H](CC(=O)[*:2])N[*:1]; NH(CH2)12COOH = O=C(O)CCCCCCCCCCCCN*; Bta = N[C@@H](Cc1csc2ccccc12)C(=O)O; PEG6 = NCCOCCOCCOCCOCCOCCOCCC(=O)O; Aha = [N-]=[N+]=NCC[C@H](N)C(=O)O; X16 = O=C([C@H]1COCCN1[*:1])[*:2]; Hyp = O=C(O)[C@@H]1C[C@@H](O)CN1; NHhexadecyl = CCCCCCCCCCCCCCCCN*; NMeNle = CCCC[C@H](NC)C(=O)O; Pip = O=C(O)[C@@H]1CCCCN1; NMeA = CN[C@@H](C)C(=O)O; Pra = C#CC[C@H](N)C(=O)O; Dab = NCC[C@H](N)C(=O)O; Dap = NC[C@H](N)C(=O)O
# Molecular target: T1, PD-L1 (Homo sapiens, UniProt Q9NZQ7)
# T1 construct: hPDL1(19-239)-TVMV-His; made in house; host or cells: HEK293T
# T1 sequence (Q9NZQ7 with tags, fused parts or gaps): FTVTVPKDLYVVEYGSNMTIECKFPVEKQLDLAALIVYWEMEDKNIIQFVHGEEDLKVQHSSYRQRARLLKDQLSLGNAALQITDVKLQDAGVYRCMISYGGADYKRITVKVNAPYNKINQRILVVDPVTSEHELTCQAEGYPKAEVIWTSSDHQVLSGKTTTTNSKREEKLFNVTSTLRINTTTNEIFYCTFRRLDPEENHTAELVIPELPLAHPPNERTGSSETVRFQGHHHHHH
# Test: PD-1/PD-L1 Homogenous Time-Resolved Fluorescence (HTRF) binding assay (PD-1-Ig/PD-L1-His)
# Settings: not given
# Outline: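 Inhibitors pre-incubated 15 min with PD-L1-His (10 nM final), then PD-1-Ig (20 nM final) added for 15 min in dPBS/0.1% BSA/0.05% Tween-20. Eu-cryptate anti-Ig (1 nM) and APC anti-His (20 nM) added, 30 min equilibration, 665/620 nm HTRF ratio read.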
row,SMILES,pIC50
1,CCCC[C@H]1C(=O)N(C)[C@@H](CCCC)C(=O)N[C@@H](CCC(=O)O)C(=O)N[C@H](C(=O)NCC(=O)N[C@@H](Cc2cn(CCCCCNC(=O)CCC(=O)Oc3c(C)c(C)c4c(c3C)CC[C@@](C)(CCC[C@H](C)CCC[C@H](C)CCCC(C)C)O4)nn2)C(=O)N[C@@H](CC(=O)O)C(N)=O)CSCC(=O)N[C@@H](Cc2ccc(O)cc2)C(=O)N(C)[C@@H](C)C(=O)N[C@@H](CC(=O)O)C(=O)N2CCC[C@H]2C(=O)N[C@@H](Cc2c[nH]cn2)C(=O)N[C@@H](CCCCN)C(=O)N2C[C@H](O)C[C@H]2C(=O)N[C@@H](Cc2c[nH]c3ccccc23)C(=O)N[C@@H](CCCCN)C(=O)N[C@@H](Cc2c[nH]c3ccccc23)C(=O)N1C [Example 14056],5.80 to 7.00

# Same assay, conditions: inhibition of PD-1-Ig binding to PD-L1-TVMV-His; value given as range class; read-out: HTRF IC50
row,SMILES,pIC50
1,CCCC[C@H]1C(=O)N(C)[C@@H](CCCC)C(=O)N[C@@H](CC(C)C)C(=O)N[C@H](C(=O)N[C@@H](Cc2cn(CCC(NC(=O)CCCCCCCCCCCCCCCCC(=O)O)C(=O)O)nn2)C(=O)O)CSCC(=O)N[C@@H](Cc2ccc(O)cc2)C(=O)N(C)[C@@H](C)C(=O)N[C@@H](CC(N)=O)C(=O)N2CCC[C@H]2C(=O)N[C@@H](CN)C(=O)N[C@@H](CC(C)C)C(=O)N2C[C@H](O)C[C@H]2C(=O)N[C@@H](Cc2c[nH]c3ccccc23)C(=O)N[C@@H](CCN)C(=O)N[C@@H](Cc2cn(CC(=O)O)c3ccccc23)C(=O)N1C (stereo partly shown) [Example 13129],7.00 to 8.00
2,CCCC[C@H]1C(=O)N(C)[C@@H](CCCC)C(=O)N[C@@H](CC(C)C)C(=O)N[C@H](C(=O)NCCCOCCOCCOCCCNC(=O)CCC(=O)NCCCOCCOCCOCCCNC(=O)CCC(=O)NCCCCCCCCCCC(=O)O)CSCC(=O)N[C@@H](Cc2ccc(O)cc2)C(=O)N(C)[C@@H](C)C(=O)N[C@@H](CC(N)=O)C(=O)N2CCC[C@H]2C(=O)N[C@@H](CN)C(=O)N[C@@H](CCC(N)=O)C(=O)N2C[C@H](O)C[C@H]2C(=O)N[C@@H](Cc2c[nH]c3ccccc23)C(=O)N[C@@H](CO)C(=O)N[C@@H](Cc2cn(CC(=O)O)c3ccccc23)C(=O)N1C [Example 11088] ({CH2CO}-Y[NMeA]NP[Dap]Q[Hyp]WS[Trp(1-CH2COOH)][NMeNle][NMeNle]LC-X28; thioether N-14),5.80 to 7.00
3,CCCCCCCCCCCCCCCC(=O)N[C@@H](CCn1cc(C[C@H](NC(=O)CNC(=O)[C@@H]2CSCC(=O)N[C@@H](Cc3ccc(O)cc3)C(=O)N(C)[C@@H](C)C(=O)N[C@@H](CC(=O)O)C(=O)N3CCC[C@H]3C(=O)N[C@@H](Cc3c[nH]cn3)C(=O)N[C@@H](CCCCN)C(=O)N3C[C@H](O)C[C@H]3C(=O)N[C@@H](Cc3c[nH]c4ccccc34)C(=O)N[C@@H](CCCCN)C(=O)N[C@@H](Cc3c[nH]c4ccccc34)C(=O)N(C)[C@@H](CCCC)C(=O)N(C)[C@@H](CCCC)C(=O)N[C@@H](CCC(=O)O)C(=O)N2)C(=O)N[C@@H](CC(=O)O)C(N)=O)nn1)C(=O)O [Example 14061],7.00 to 8.00
4,CCCC[C@H]1C(=O)N(C)[C@@H](CCCC)C(=O)N[C@@H](CC(C)C)C(=O)N[C@H](C(=O)NCC(=O)NCC(=O)NCC(=O)NCCCCCCCCCCCCC(=O)O)CSCC(=O)N[C@@H](Cc2ccc(O)cc2)C(=O)N(C)[C@@H](C)C(=O)N[C@@H](CC(=O)O)C(=O)N2CCC[C@H]2C(=O)N[C@@H](Cc2cnc[nH]2)C(=O)N[C@@H](CCCCN)C(=O)N2C[C@H](O)C[C@H]2C(=O)N[C@@H](Cc2c[nH]c3ccccc23)C(=O)N[C@@H](CCCCN)C(=O)N[C@@H](Cc2cn(CC(=O)O)c3ccccc23)C(=O)N1C [Example 11216] ({CH2CO}-Y[NMeA]DPHK[Hyp]WK[Trp(1-CH2COOH)][NMeNle][NMeNle]LCGGG-{NH(CH2)12COOH}; thioether N-14),7.00 to 8.00
5,C#CC[C@H](NC(=O)CNC(=O)[C@@H]1CSCC(=O)N[C@@H](Cc2ccc(O)cc2)C(=O)N(C)[C@@H](C)C(=O)N[C@@H](CC(=O)O)C(=O)N2CCC[C@H]2C(=O)N[C@@H](CN)C(=O)N[C@@H](CC(C)C)C(=O)N2C[C@H](O)C[C@H]2C(=O)N[C@@H](Cc2c[nH]c3ccccc23)C(=O)N[C@@H](CCN)C(=O)N[C@@H](Cc2cn(CC(=O)O)c3ccccc23)C(=O)N(C)[C@@H](CCCC)C(=O)N(C)[C@@H](CCCC)C(=O)N[C@@H](CCC(=O)O)C(=O)N1)C(=O)O [INT130AE] ({CH2CO}-Y[NMeA]DP[Dap]L[Hyp]W[Dab][Trp(1-CH2COOH)][NMeNle][NMeNle]ECG[Pra]-OH; thioether N-14),7.00 to 8.00
6,CCCC[C@H]1C(=O)N(C)[C@@H](CCCC)C(=O)N[C@@H](CC(C)C)C(=O)N[C@H](C(=O)NCC(=O)N[C@@H](CC(=O)N2CCOC[C@@H]2C(=O)NCC[C@H](NC(=O)CCCCCCCCCCCCCCCCC(=O)O)C(=O)O)C(=O)O)CSCC(=O)N[C@@H](Cc2ccc(O)cc2)C(=O)N2CCCC[C@H]2C(=O)N[C@@H](CC(N)=O)C(=O)N2CCC[C@H]2C(=O)N[C@@H](CN)C(=O)N[C@@H](CC(C)C)C(=O)N2C[C@H](O)C[C@H]2C(=O)N[C@@H](Cc2c[nH]c3ccccc23)C(=O)N[C@@H](CCN)C(=O)N[C@@H](Cc2cn(CC(=O)O)c3ccccc23)C(=O)N1C [Example 13158] ({CH2CO}-Y[Pip]NP[Dap]L[Hyp]W[Dab][Trp(1-CH2COOH)][NMeNle][NMeNle]LCG[βAsp][X16]-X9; thioether N-14),8.00 to 9.52
7,CCCC[C@H]1C(=O)N(C)[C@@H](CCCC)C(=O)N[C@@H](CC(C)C)C(=O)N[C@H](C(=O)NCC(=O)N[C@@H](CCC(=O)NCCOCCOCCOCCOCCOCCOCCC(=O)NC[C@H](NC(=O)CCCCCCCCCCCCCCC(=O)O)C(=O)O)C(=O)O)CSCC(=O)N[C@@H](Cc2ccc(O)cc2)C(=O)N(C)[C@@H](C)C(=O)N[C@@H](CC(N)=O)C(=O)N2CCC[C@H]2C(=O)N[C@@H](CN)C(=O)N[C@@H](CC(C)C)C(=O)N2C[C@H](O)C[C@@H]2C(=O)N[C@@H](Cc2c[nH]c3ccccc23)C(=O)N[C@@H](CCN)C(=O)N[C@@H](Cc2cn(CC(=O)O)c3ccccc23)C(=O)N1C [Example 11165] ({CH2CO}-Y[NMeA]NP[Dap]L[d(cisHyp)]W[Dab][Trp(1-CH2COOH)][NMeNle][NMeNle]LCG[γGlu][PEG6]-X10; thioether N-14),8.00 to 9.52
8,CCCC[C@H]1C(=O)N(C)[C@@H](CCCC)C(=O)N[C@@H](CC(C)C)C(=O)N[C@H](C(=O)NCCCOCCOCCOCCCNC(=O)CCC(=O)N[C@@H](CC(=O)O)C(N)=O)CSCC(=O)N[C@@H](Cc2ccc(O)cc2)C(=O)N(C)[C@@H](C)C(=O)N[C@@H](CC(N)=O)C(=O)N2CCC[C@H]2C(=O)N[C@@H](Cc2cnc[nH]2)C(=O)N[C@@H](CCC(=O)O)C(=O)N2C[C@H](O)C[C@H]2C(=O)N[C@@H](Cc2c[nH]c3ccccc23)C(=O)N[C@@H](CCN)C(=O)N[C@@H](Cc2cn(CC(=O)O)c3ccccc23)C(=O)N1C [Example 11067] ({CH2CO}-Y[NMeA]NPHE[Hyp]W[Dab][Trp(1-CH2COOH)][NMeNle][NMeNle]LC-X3; thioether N-14),7.00 to 8.00
9,CCCC[C@H]1C(=O)N(C)[C@@H](CCCC)C(=O)N[C@@H](CC(C)C)C(=O)N[C@H](C(=O)NCC(=O)N[C@@H](CC(=O)O)C(=O)NCCCOCCOCCOCCCNC(=O)CC[C@H](NC(=O)CCCCCCCCCCCCCCC(=O)O)C(=O)O)CSCC(=O)N[C@@H](Cc2ccc(O)cc2)C(=O)N(C)[C@@H](C)C(=O)N[C@@H](CC(N)=O)C(=O)N2CCC[C@H]2C(=O)N[C@@H](CN)C(=O)N[C@@H](CC(C)C)C(=O)N2C[C@H](O)C[C@@H]2C(=O)N[C@@H](Cc2c[nH]c3ccccc23)C(=O)N[C@@H](CCN)C(=O)N[C@@H](Cc2cn(CC(=O)O)c3ccccc23)C(=O)N1C [Example 11162] ({CH2CO}-Y[NMeA]NP[Dap]L[d(cisHyp)]W[Dab][Trp(1-CH2COOH)][NMeNle][NMeNle]LCGD-X13; thioether N-14),5.80 to 7.00
10,CCCC[C@H]1C(=O)N(C)[C@@H](CCCC)C(=O)N[C@@H](CC(C)C)C(=O)N[C@H](C(=O)NCC(=O)N[C@@H](CNC(=O)CC[C@H](NC(=O)CCCCCCCCCCCCCCCCC(=O)O)C(=O)O)C(=O)O)CSCC(=O)N[C@@H](Cc2ccc(O)cc2)C(=O)N(C)[C@@H](C)C(=O)N[C@@H](CC(N)=O)C(=O)N2CCC[C@H]2C(=O)N[C@@H](CN)C(=O)N[C@@H](CC(C)C)C(=O)N2C[C@H](O)C[C@H]2C(=O)N[C@@H](Cc2c[nH]c3ccccc23)C(=O)N[C@@H](CCN)C(=O)N[C@@H](Cc2cn(CC(=O)O)c3ccccc23)C(=O)N1C [Example 13153] ({CH2CO}-Y[NMeA]NP[Dap]L[Hyp]W[Dab][Trp(1-CH2COOH)][NMeNle][NMeNle]LCG[Dap]([γGlu-C18 diacid])-OH; thioether N-14),8.00 to 9.52
11,CCCCCCCCCCCCCCCCNC(=O)[C@H](CC(=O)O)NC(=O)CNC(=O)CNC(=O)CNC(=O)[C@@H]1CSCC(=O)N[C@@H](Cc2ccc(O)cc2)C(=O)N(C)[C@@H](C)C(=O)N[C@@H](CC(=O)O)C(=O)N2CCC[C@H]2C(=O)N[C@@H](Cc2cnc[nH]2)C(=O)N[C@@H](CC(C)C)C(=O)N2C[C@H](O)C[C@H]2C(=O)N[C@@H](Cc2c[nH]c3ccccc23)C(=O)N[C@@H](CO)C(=O)N[C@@H](Cc2c[nH]c3ccccc23)C(=O)N(C)[C@@H](CCCC)C(=O)N(C)[C@@H](CCCC)C(=O)N[C@@H](CCCNC(=N)N)C(=O)N1 [Example 11120] ({CH2CO}-Y[NMeA]DPHL[Hyp]WSW[NMeNle][NMeNle]RCGGGD-NHhexadecyl; thioether N-14),5.80 to 7.00
12,CCCC[C@H]1C(=O)N(C)[C@@H](CCCC)C(=O)N[C@@H](CCCNC(=N)N)C(=O)N[C@H](C(=O)NCC(=O)NCC(=O)N[C@@H](CCN=[N+]=[N-])C(N)=O)CSCC(=O)N[C@@H](Cc2ccc(O)cc2)C(=O)N(C)[C@@H](C)C(=O)N[C@@H](CC(N)=O)C(=O)N2CCC[C@H]2C(=O)N[C@@H](CN)C(=O)N[C@@H](CC(C)C)C(=O)N2C[C@H](O)C[C@H]2C(=O)N[C@@H](Cc2c[nH]c3ccccc23)C(=O)N[C@@H](CO)C(=O)N[C@@H](Cc2csc3ccccc23)C(=O)N1C [INT 1300C] ({CH2CO}-Y[NMeA]NP[Dap]L[Hyp]WS[Bta][NMeNle][NMeNle]RCGG[Aha]-NH2; thioether N-14),8.00 to 9.52
